Reference: patent publication US7229987B2, “Multicyclic compounds for use as melanin concentrating hormone antagonists in the treatment of obesity and diabetes” (Eli Lilly and Company, priority 2002, dated 2007)

Columns and labels:
[1] = target: T1, human MCHR1 (Homo sapiens, UniProt Q99705); experiment: Inhibition of MCH-stimulated GTPγ35S binding to clone 43 membranes (functional antagonism); assay type: biochemical; settings: inhibition of GTPγ35S binding stimulated by 40 nM MCH (about EC90), Kb from IC50 by modified Cheng-Prusoff (Leff and Dougal), tested in duplicate
T1 construct: The full-length cDNA for human MCHR1 was cloned from a human adult brain cDNA library; expressed in transfected cells; host or cells: AV12 cells previously transfected with Gα15
From the text: (§1) The full-length cDNA for human MCHR1 was cloned from a human adult brain cDNA library (Edge Biosystems, Cat. 38356) by standard polymerase chain reaction (PCR) methodology employing the following primers: sense, 5′-GCCACCATGGACCT GGAAGCCTCGCTGC-3′; anti-sense, 5′-[…]-3′.
(§2) In order to generate cell lines stably expressing MCHR1, the insert was then subcloned into the Xba I and Not I sites of pcDNA(+)-3.1-neomycin (Invitrogen). After purification by Qiagen Maxi-prep kit (QIAGEN, Inc.), the plasmid was transfected by Fugene 6 (Roche Applied Science) into AV12 cells that had been previously transfected with the promiscuous G protein Gα15. The transfected cells were selected by
(§3) Both the ^125I-MCH binding and functional GTPγ^35S binding assays employed membranes isolated from a clone designated as clone 43. Typically, cells from 20 confluent T225 flasks were processed by washing the monolayers in cold phosphate-buffered saline (PBS), scraping the cells into same and re-suspending the cell pellet in 35 ml of 250 mM Sucrose, 50 mM HEPES, pH 7.5, 1 mM MgCl2, 24 μg/ml DNase I, and protease inhibitors (1 Complete® tablet, per 50 ml of buffer prepared, Roche Diagnostics). After incubation on ice for 5 min, cells were disrupted with 20–25 strokes of a Teflon/Glass homogenizer attached to an overhead motorized stirrer, and the homogenate was centrifuged at 40,000 rpm in Beckman Type 70.1 Ti rotor. The pellets were re-suspended in 250 mM Sucrose, 50 mM HEPES, pH 7.5, 1.5 mM CaCl2, 1 mM MgSO4 and protease inhibitors by Teflon/Glass homogenization to achieve a protein concentration of ˜3–5 mg/ml (Pierce BCA assay with Bovine serum albumin as standard).
Functional antagonism of MCH activity is assessed by measuring the ability of test compound to inhibit MCH-stimulated binding of GTPγ^35S to clone 43 membranes. Briefly, assays are carried out in Costar 3632 white opaque plates in a total volume of 200 μl containing 25 mM Hepes, pH 7.5, 5 mM MgCl2, 10 μg/ml saponin, 100 mM NaCl, 3 μM GDP, 0.3 nM GTPγ^35S, 40 nM MCH (approximately equal to EC90), 20 μg of clone 43 membranes, 1.0 mg of wheat germ agglutinin scintillation proximity assay beads (WGA-SPA beads, Amersham) and a graded dose of test compound. The plates are sealed and left for 16–18 hrs at 4° C. After a 1 hr delay to allow plates to equilibrate to ambient temperature, bound GTPγ^35S is determined by counting in a Microbeta Trilux (Wallac).
IC50 values (defined as the concentration of test compound required to reduce MCH-stimulated GTPγ^35S binding by 50%) are determined by fitting the concentration-response data to a 4-parameter model (max response, min response, Hill coefficient, IC50) using Excel. Kb values are calculated from IC50 values using a modification of the Cheng-Prusoff approximation as described by Leff and Dougal (Further concerns over Cheng-Prusoff analysis, Trends Pharmacol. Sci. 14: 110–112 (1993)) after verifying competitive antagonism by Schild analysis. The EC50 for MCH alone is determined independently. The MCHR1 binding and functional activities of 24 compounds in the oxadiazole series (tested in duplicate) are shown in Table 1

[2] = target: T1, human MCHR1; experiment: 125I-MCH competitive binding assay (SPA) with clone 43 membranes; settings: competition with 125I-MCH, clone 43 membranes (AV12 cells expressing human MCHR1); Ki from IC50 by Cheng-Prusoff; tested in duplicate
From the text: as §1, §2, §3
Aliquots were stored at −70° C. Binding of compounds to MCHR1 was assessed in a competitive binding assay employing ^125I-MCH, compound and clone 43 membranes. Briefly, assays are carried out in 96-well Costar 3632 white opaque plates in a total volume of 200 μl containing 25 mM HEPES, pH 7.5, 10 mM CaCl2, 2 mg/ml bovine serum albumin, 0.5% dimethyl sulfoxide (DMSO), 4 μg of clone 43 membranes, […] ^125I-MCH (NEN), 1.0 mg of wheat germ agglutinin scintillation proximity assay beads (WGA-SPA beads, Amersham) and a graded dose of test compound. Non-specific binding is assessed in the presence of 1 μM unlabeled MCH. Bound ^125I-MCH is determined by placing sealed plates in a Microbeta Trilux (Wallac) and counting after a 5 hr delay.
IC50 values (defined as the concentration of test compound required to reduce specific binding of ^125I-MCH by 50%) are determined by fitting the concentration-response data to a 4-parameter model (max response, min response, Hill coefficient, IC50) using Excel. Ki values are calculated from IC50 values using the Cheng-Prusoff approximation as described by Cheng et al. (Relationship between the inhibition constant (Ki) and the concentration of inhibitor which causes 50% inhibition (IC50) of an enzymatic reaction, Biochem. Pharmacol., 22: 3099–3108 (1973)). The Kd for ^125I-MCH is determined independently from a saturation binding isotherm.

T1 sequence (Q99705 whole entry): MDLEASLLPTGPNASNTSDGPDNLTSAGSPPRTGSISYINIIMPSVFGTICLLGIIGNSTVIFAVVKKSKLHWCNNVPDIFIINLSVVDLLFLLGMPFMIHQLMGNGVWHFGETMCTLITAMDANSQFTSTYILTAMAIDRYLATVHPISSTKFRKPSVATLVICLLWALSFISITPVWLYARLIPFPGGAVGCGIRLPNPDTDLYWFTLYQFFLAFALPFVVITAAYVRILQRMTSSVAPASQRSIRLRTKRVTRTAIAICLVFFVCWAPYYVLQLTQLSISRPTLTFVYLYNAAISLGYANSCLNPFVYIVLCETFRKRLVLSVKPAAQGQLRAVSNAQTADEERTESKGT

| Compound | Kb [1] [nM] | Ki [2] [nM] | melting point [°C] |
| --- | --- | --- | --- |
| CN(C)C/C=C/c1ccc(-c2nnc(CSCCOc3ccccc3)o2)cc1 | 11.6 | 3.7 |  |
| CN(C)CCCOc1ccc(-c2cnc(CSCCOc3ccccc3)o2)cc1 | 15 | 4.3 |  |
| c1ccc(OCCSCc2ncc(-c3ccc(OCCN4CCCC4)cc3)o2)cc1 | 12 | 5.8 |  |
| O=C(NCCN1CCCC1)Nc1ccc(-c2nnc(CSCCOc3ccccc3)o2)cc1 | 20 | 9 |  |
| c1ccc(OCCSCc2ncc(-c3ccc(OCCCN4CCCC4)cc3)o2)cc1 | 16.5 | 10.2 |  |
| CN(C)CCNC(=O)Nc1ccc(-c2nnc(CSCCOc3ccccc3)o2)cc1 | 16.2 | 10.4 |  |
| c1ccc(OCCSCc2ncc(-c3ccc(OCCN4CCCCC4)cc3)o2)cc1 | 7.3 | 11.6 |  |
| CN1CCC[C@@H]1CCOc1ccc(-c2nnc(CSCCOc3ccccc3)o2)cc1 | 39.6 | 12.9 |  |
| CN(C)CCOc1ccc(-c2cnc(CSCCOc3ccccc3)o2)cc1 | 9.4 | 13.3 |  |
| CN(C)CCCOc1ccc(-c2nnc(CSCc3cc4ccccc4o3)o2)cc1 | 35.4 | 16.1 |  |
| c1ccc(OCCSCc2ncc(-c3ccc(OCCCN4CCCCC4)cc3)o2)cc1 | 15.9 | 17.9 |  |
| CN(C)CCCOc1ccc(-c2nnc(CSCc3ccc4ccccc4c3)o2)cc1 | 50.6 | 22.4 |  |
| CN(C)CCCOc1ccc(-c2coc(CSCCOc3ccccc3)n2)cc1 | 41.5 | 35 |  |
| CN(C)CCCOc1ccc(-c2nnc(CSCc3cc4ccccc4s3)o2)cc1 | 139 | 48.4 |  |
| COc1cc(-c2nnc(CSCCOc3ccccc3)o2)ccc1OCCCN(C)C.O=C(O)/C=C\C(=O)O [Example 284, (3-{2-methoxy-4-[5-(2-phenoxy-ethylsulfanylmethyl)-[1,3,4]oxadiazol-2-yl]-phenoxy}-propyl)-dimethyl-amine; maleic acid salt] |  |  | 114 to 116 |
| COc1cc(-c2nnc(CSCCOc3ccccc3)o2)cc(OC)c1OCCCN(C)C.O=C(O)/C=C\C(=O)O [Example 285, (3-{2,6-dimethoxy-4-[5-(2-phenoxy-ethylsulfanylmethyl)-[1,3,4]oxadiazol-2-yl]-phenoxy}-propyl)-dimethyl-amine; maleic acid salt] |  |  | 103 to 104 |

| Compound | Kb [1] [nM] | Ki [2] [nM] | melting point [°C] |
| --- | --- | --- | --- |
| CN(C)CCCOc1ccc(-c2nnc(CSCCOc3ccccc3)o2)cc1F.O=C(O)/C=C\C(=O)O [Example 287, (3-{2-fluoro-4-[5-(2-phenoxy-ethylsulfanylmethyl)-[1,3,4]oxadiazol-2-yl]-phenoxy}-propyl)-dimethyl-amine; maleic acid salt] |  |  | 70 to 72 |
| CN(C)CCCOc1ccc(-c2nnc(CSCCOc3ccccc3)o2)cn1 [Example 288, dimethyl-(3-{5-[5-(2-phenoxy-ethylsulfanylmethyl)-[1,3,4]oxadiazol-2-yl]-pyridin-2-yloxy}-propyl)-amine] |  |  | 69 to 70 |
| CN(C)CCCOc1ccc(-c2nnc(CSCCOc3ccccc3)o2)nc1 [Example 289, dimethyl-(3-{6-[5-(2-phenoxy-ethylsulfanylmethyl)-[1,3,4]oxadiazol-2-yl]-pyridin-3-yloxy}-propyl)-amine] |  |  | 47 to 49 |
| CN1CCCC(COc2ccc(-c3nnc(CSCCOc4ccccc4)o3)cc2)C1.O=C(O)/C=C\C(=O)O (centres unmarked) [Example 290, 1-methyl-3-{4-[5-(2-phenoxy-ethylsulfanylmethyl)-[1,3,4]oxadiazol-2-yl]-phenoxymethyl}-piperidine; maleic acid salt] |  |  | 115 to 116 |
| CN1CCC(Oc2ccc(-c3nnc(CSCCOc4ccccc4)o3)cc2)CC1.O=C(O)/C=C\C(=O)O [Example 291, 1-methyl-4-{4-[5-(2-phenoxy-ethylsulfanylmethyl)-[1,3,4]oxadiazol-2-yl]-phenoxy}-piperidine; maleic acid salt] |  |  | 149 to 150 |
| CN1CCN(c2ccc(-c3nnc(CSCCOc4ccccc4)o3)cn2)CC1.O=C(O)/C=C\C(=O)O [Example 293, 1-methyl-4-{5-[5-(2-phenoxy-ethylsulfanylmethyl)-[1,3,4]oxadiazol-2-yl]-pyridin-2-yl}-piperazine; maleic acid salt] |  |  | 146 to 147 |
| C(=C\c1ccc(-c2nnc(CSCCOc3ccccc3)o2)cc1)/CN1CCCC1 [drawing 38] | 6 | 1.9 |  |
| CN(C)CCOc1ccc(-c2nnc(CSCCOc3ccccc3)o2)cc1 [drawing 41] | 13.6 | 5.3 |  |
| O=C(NCCN1CCCCC1)Nc1ccc(-c2nnc(CSCCOc3ccccc3)o2)cc1 [drawing 42] | 14.7 | 5.6 |  |
| c1ccc(OCCSCc2nnc(-c3ccc(OCCN4CCCCC4)cc3)o2)cc1 [drawing 45] | 19.8 | 9.2 |  |
| c1ccc(OCCSCc2nnc(-c3ccc(OCCCN4CCCC4)cc3)o2)cc1 [drawing 51] | 18.1 | 14.3 |  |
| CN(C)CCCOc1ccc(-c2nnc(CSCCOc3ccccc3)o2)cc1 [drawing 52] | 11.9 | 16 |  |
| c1ccc(OCCSCc2nnc(-c3ccc(OCCCCN4CCCCCC4)cc3)o2)cc1 [drawing 57] | 31.3 | 37.9 |  |
| CC(C)N(CCCCOc1ccc(-c2nnc(CSCCOc3ccccc3)o2)cc1)C(C)C [drawing 59] | 52.1 | 63.3 |  |
| CC(C)N(CCCOc1ccc(-c2nnc(CSCCOc3ccccc3)o2)cc1)C(C)C [drawing 60] | 145 | 140 |  |
| c1ccc(OCCSCc2nnc(-c3ccc(OCc4cccnc4)cc3)o2)cc1 [drawing 61] | 6890 | 2900 |  |
